The target of test [1] is Replicase polyprotein 1ab (Severe acute respiratory syndrome coronavirus 2) (UniProt P0DTD1). The test can be described thus: Binding affinity to SARS-CoV-2 main protease assessed as change in melting temperature by DSF assay. Background: In DSF a fluorescence change marks the thermal transition of the protein.
Test [2] addresses Replicase polyprotein 1ab (Severe acute respiratory syndrome coronavirus 2, UniProt P0DTD1). The test can be described thus: Inhibition of SARS-CoV-2 main protease by FRET assay.

The values that follow come from ChEMBL document CHEMBL5365412, “Discovery of benzodiazepine derivatives as a new class of covalent inhibitors of SARS-CoV-2 main protease” (Bioorg Med Chem Lett, 2023).

With `CC1CC(=O)C2=C(C1)Nc1cc([N+](=O)[O-])ccc1N(C(=O)CCl)C2C1CCCC1` (stereo unspecified), the ΔTm (as a rule, the shift of the melting midpoint relative to a reference) in test [1] was found to be 3.01 °C. Moreover, the IC50 (in general, the midpoint of a concentration-inhibition curve) in test [2] is 5.15 µM.
For `COc1ccc(C2C3=C(CC(C)CC3=O)Nc3cc([N+](=O)[O-])ccc3N2C(=O)CCl)cc1` (stereo unspecified), in that order: 3.13 °C and 4.45 µM.
Turning to `Cc1ccc(C2C3=C(CC(C)CC3=O)Nc3cc([N+](=O)[O-])ccc3N2C(=O)CCl)cc1` (stereo unspecified), the ΔTm in test [1] was determined as 1.62 °C. Also, the concentration for half-maximal inhibition (IC50) in test [2] worked out at 3.35 µM.
For `CC1(C)CC(=O)C2=C(C1)Nc1cc([N+](=O)[O-])ccc1N(C(=O)CCl)C2c1ccc(C(F)(F)F)cc1` (stereo unspecified), in that order: -0.54 °C and 3.73 µM.
For `N#Cc1ccc2c(c1)NC1=C(C(=O)CCC1)C(c1ccc(C(F)(F)F)cc1)N2C(=O)CCl` (stereo unspecified), the ΔTm in test [1] stood at 6.02 °C. Further, the midpoint of inhibition in test [2], the IC50, lay at 1.84 µM.
For the compound `CC1CC(=O)C2=C(C1)Nc1cc([N+](=O)[O-])ccc1N(C(=O)CCl)C2c1ccc(C(F)(F)F)cc1` (stereo unspecified), the ΔTm in test [1] was 4.02 °C. In test [2], this compound displayed a half-maximal inhibitory concentration (IC50) of 3.31 µM.
For `O=C1CCCC2=C1C(c1ccc(OC(F)(F)F)cc1)N(C(=O)CCl)c1ccc([N+](=O)[O-])cc1N2` (stereo unspecified), in that order: 3.65 °C and 2.03 µM.
The matching figures for `CC1(C)CC(=O)C2=C(C1)Nc1cc([N+](=O)[O-])ccc1N(C(=O)CCl)C2C1CCCC1` (stereo unspecified): 3.53 °C and 9.12 µM.
As for `CC1CC(=O)C2=C(C1)Nc1cc([N+](=O)[O-])ccc1N(C(=O)CCl)C2C1CC1` (stereo unspecified), the ΔTm in test [1] was found to be 4.66 °C. The compound also came in with an IC50 in test [2] of 9.06 µM.
The matching figures for `CC1(C)CC(=O)C2=C(C1)Nc1cc([N+](=O)[O-])ccc1N(C(=O)CCl)C2C1CC1` (stereo unspecified): 2.01 °C and 13.3 µM.
For `CC1(C)CC(=O)C2=C(C1)Nc1cc([N+](=O)[O-])ccc1N(C(=O)CCl)C2c1ccc(F)cc1F` (stereo unspecified), in that order: 2.94 °C and 9.55 µM.
For `O=C1CCCC2=C1C(c1ccccc1)N(C(=O)CCl)c1ccc([N+](=O)[O-])cc1N2` (stereo unspecified), in that order: 5.71 °C and 1.67 µM.
Take `CC1CC(=O)C2=C(C1)Nc1cc([N+](=O)[O-])ccc1N(C(=O)CCl)C2c1ccc(OC(F)(F)F)cc1` (stereo unspecified): in test [1], the ΔTm was 0.13 °C. For the same compound, the IC50 in test [2] came out at 4.15 µM.
The matching figures for `O=C1CCCC2=C1CN(C(=O)CCl)c1ccc([N+](=O)[O-])cc1N2`: 4.1 °C and 5.11 µM.
With `CC1CC(=O)C2=C(C1)Nc1cc([N+](=O)[O-])ccc1N(C(=O)CCl)C2C1CCCCC1` (stereo unspecified), in test [1], the thermal shift (ΔTm) was found to be 2.57 °C. In test [2], this compound displayed an IC50 of 3.63 µM.
Turning to `Cc1ccc(C2C3=C(CC(C)(C)CC3=O)Nc3cc([N+](=O)[O-])ccc3N2C(=O)CCl)cc1` (stereo unspecified), in test [1], the ΔTm was determined as 3.27 °C. Also, in test [2], the IC50 worked out at 3.94 µM.
For `CC1CC(=O)C2=C(C1)Nc1cc([N+](=O)[O-])ccc1N(C(=O)CCl)C2C` (stereo unspecified), in that order: 3.21 °C and 11 µM.
The matching figures for `CC1(C)CC(=O)C2=C(C1)Nc1cc([N+](=O)[O-])ccc1N(C(=O)CCl)C2c1ccc(OC(F)(F)F)cc1` (stereo unspecified): -1.64 °C and 5.68 µM.
The matching figures for `CC1(C)CC(=O)C2=C(C1)Nc1cc([N+](=O)[O-])ccc1N(C(=O)CCl)C2C1CCCCC1` (stereo unspecified): 4.64 °C and 5.26 µM.
For the compound `CC1C2=C(CC(C)(C)CC2=O)Nc2cc([N+](=O)[O-])ccc2N1C(=O)CCl` (stereo unspecified), the shift in melting temperature (ΔTm) in test [1] turned out to be 1.32 °C. In addition, the IC50 in test [2] is 23.3 µM.
The matching figures for `Cc1ccc(C2C3=C(CCCC3=O)Nc3cc([N+](=O)[O-])ccc3N2C(=O)CCl)cc1` (stereo unspecified): 4.44 °C and 2.35 µM.
The matching figures for `CC1(C)CC(=O)C2=C(C1)Nc1cc([N+](=O)[O-])ccc1N(C(=O)CCl)C2c1ccccc1` (stereo unspecified): 4.74 °C and 4.52 µM.
For `O=C1CCCC2=C1C(C1CC1)N(C(=O)CCl)c1ccc([N+](=O)[O-])cc1N2` (stereo unspecified), in that order: 4.77 °C and 2.55 µM.
For the compound `CC1CC(=O)C2=C(C1)Nc1cc([N+](=O)[O-])ccc1N(C(=O)CCl)C2c1ccccc1` (stereo unspecified), the ΔTm in test [1] worked out at 3.16 °C. The same compound returned an IC50 in test [2] of 3.36 µM.
As for `O=C1CCCC2=C1C(C1CCCC1)N(C(=O)CCl)c1ccc([N+](=O)[O-])cc1N2` (stereo unspecified), in test [1], the ΔTm turned out to be 6.27 °C. Besides, the IC50 in test [2] was 1.92 µM.
The matching figures for `CC1CC(=O)C2=C(C1)Nc1cc([N+](=O)[O-])ccc1N(C(=O)CCl)C2` (stereo unspecified): 2.79 °C and 11.5 µM.
For `O=C1CCCC2=C1C(c1ccc(C(F)(F)F)cc1)N(C(=O)CCl)c1ccc([N+](=O)[O-])cc1N2` (stereo unspecified), in that order: 6.6 °C and 1.02 µM.
The matching figures for `O=C1CCCC2=C1C(C1CCC1)N(C(=O)CCl)c1ccc([N+](=O)[O-])cc1N2` (stereo unspecified): 5.83 °C and 2.48 µM.
`O=C1CCCC2=C1C(C1CCCCC1)N(C(=O)CCl)c1ccc([N+](=O)[O-])cc1N2` (stereo unspecified): the ΔTm in test [1] turned out to be 7.14 °C. In addition, the IC50 in test [2] worked out at 1.59 µM.
For `COC(=O)c1ccc2c(c1)NC1=C(C(=O)CCC1)C(c1ccc(C(F)(F)F)cc1)N2C(=O)CCl` (stereo unspecified), in that order: 8.45 °C and 0.18 µM.
For `COc1ccc(C2C3=C(CC(C)(C)CC3=O)Nc3cc([N+](=O)[O-])ccc3N2C(=O)CCl)cc1` (stereo unspecified), in that order: -2.76 °C and 4.52 µM.
The matching figures for `CC1CC(=O)C2=C(C1)Nc1cc([N+](=O)[O-])ccc1N(C(=O)CCl)C2c1ccc(F)cc1F` (stereo unspecified): 3.25 °C and 6.21 µM.
For `COc1ccc(C2C3=C(CCCC3=O)Nc3cc([N+](=O)[O-])ccc3N2C(=O)CCl)cc1` (stereo unspecified), the shift in melting temperature (ΔTm) in test [1] is 4.55 °C. This compound had an IC50 in test [2] of 2.05 µM.
For `CC1CC(=O)C2=C(C1)Nc1cc([N+](=O)[O-])ccc1N(C(=O)CCl)C2C1CCC1` (stereo unspecified), in that order: 2.74 °C and 7.32 µM.
Take `CC1C2=C(CCCC2=O)Nc2cc([N+](=O)[O-])ccc2N1C(=O)CCl` (stereo unspecified): the ΔTm in test [1] was 4.5 °C. The IC50 in test [2] amounted to 3.69 µM.
The matching figures for `O=C1CCCC2=C1C(c1ccc(F)cc1F)N(C(=O)CCl)c1ccc([N+](=O)[O-])cc1N2` (stereo unspecified): 2.95 °C and 4.09 µM.
The matching figures for `CC1(C)CC(=O)C2=C(C1)Nc1cc([N+](=O)[O-])ccc1N(C(=O)CCl)C2`: 1.85 °C and 24.4 µM.
With `CC1(C)CC(=O)C2=C(C1)Nc1cc([N+](=O)[O-])ccc1N(C(=O)CCl)C2C1CCC1` (stereo unspecified), the ΔTm in test [1] came to 2.72 °C. The compound further displayed an IC50 in test [2] of 9.57 µM.
